Measured values published in patent publication US20040018941A1, “Fused-benzene derivatives of thiouracil, herbicidal and desiccant compositions contaning them” (ISHIHARA SANGYO KAISHA, LTD., priority 2002, published 2004).

Assays:
Type in all cases: in vivo
Details in all cases: rating 0-100 (0 no damage, 100 complete death), 14 days after application
[1] = tested on: field corn (Zea mays L., var. Dekalb 527, CORN); experiment: Post-emerge crop damage, greenhouse screen, CORN
Excerpt: (§1) A standard greenhouse herbicide activity screening system was used to evaluate the herbicidal efficacy and crop safety of these test compounds. Seven broadleaf weed species including redroot pigweed (Amaranthus retroflexus, AMARE), velvetleaf (Abutilon theophrasti, ABUTH), sicklepod (Cassia obtusifolia, CASOB), ivyleaf morningglory (Ipomoea hederacea, IPOHE), lambsquarters (Chenopodium album, CHEAL), common ragweed (Ambrosia artemisiifolia L., AMBEL), and cocklebur (Xanthium strumarium, XANST) were used as test species. Four grass weed species including green foxtail (Setaria viridis, SETVI), barnyardgrass (Echinochloa crus-galli, ECHCG), johnsongrass (Sorghum halepense, SORHA), and large crabgrass (Digitaria sanguinalis, DIGSA) were also used. In addition, three crop species, field corn (Zea mays L., var. Dekalb 527, CORN), soybean (Glycine max L., var. Pella 86, SOY), and upland rice (Oryza sp., var. Tebonnet, RICE) were included.
(§2) All plants were grown in 10 cm square plastic pots which were filled with a sandy loam soil mix. For pre-emerge tests, seeds were planted one day prior to application of the test compounds. For post-emerge tests, seeds were planted 8-21 days prior to the test to allow emergence and good foliage development prior to application of the test substances. At the time of the post-emerge application, plants of all species were usually at the 2-3 leaf stage of development.
(§3) All test compounds were dissolved in acetone and applied to the test units in a volume of 187 l/ha. Test materials were applied at rates ranging from 15 g ai/ha to 1000 g ai/ha using a track sprayer equipped with a TJ8001 E even flow flat fan spray nozzle. Plants were arranged on a shelf so that the top of the canopy (post-emerge) or top of the soil surface (pre-emerge) was 40-45 cm below the nozzle. Pressurized air was used to force the test solution through the nozzle as it was mechanically advanced over the top of all test plants/pots. This application simulates a typical commercial field herbicide application.
(§4) In the post-emerge test, a commercial non-ionic surfactant was also included (0.25% v/v) to enhance wetting of the leaf surfaces of target plants. Immediately after application, test units of the pre-emerge applications were watered at the soil surface to incorporate the test materials.
(§5) At 14 days after application of the test materials, phytotoxicity ratings were recorded. A rating scale of 0-100 was used as previously described in Research Methods in Weed Science, 2nd edition, B. Truelove, Ed., Southern Weed Science Society, Auburn University, Auburn, Ala., 1977. Briefly, “0” corresponds to no damage and “100” corresponds to complete death of all plants in the test unit. This scale was used both to determine efficacy against weed species and damage to crop species. Herbicide activity data for various compounds of this invention, which are shown by compound No. in Tables 1-7, are shown in Tables 8 and 9.

[2] = tested on: lambsquarters (Chenopodium album, CHEAL); experiment: Pre-emerge herbicidal activity, greenhouse screen, CHEAL
Excerpt: as §1, §2, §3, §4, §5

[3] = tested on: upland rice (Oryza sp., var. Tebonnet, RICE); experiment: Pre-emerge crop damage, greenhouse screen, RICE
Excerpt: as §1, §2, §3, §4, §5

[4] = tested on: redroot pigweed (Amaranthus retroflexus, AMARE); experiment: Post-emerge herbicidal activity, greenhouse screen, AMARE
Excerpt: as §1, §2, §3, §4, §5

[5] = tested on: johnsongrass (Sorghum halepense, SORHA); experiment: Post-emerge herbicidal activity, greenhouse screen, SORHA
Excerpt: as §1, §2, §3, §4, §5

[6] = tested on: barnyardgrass (Echinochloa crus-galli, ECHCG); experiment: Post-emerge herbicidal activity, greenhouse screen, ECHCG
Excerpt: as §1, §2, §3, §4, §5

[7] = tested on: green foxtail (Setaria viridis, SETVI); experiment: Post-emerge herbicidal activity, greenhouse screen, SETVI
Excerpt: as §1, §2, §3, §4, §5

[8] = tested on: ivyleaf morningglory (Ipomoea hederacea, IPOHE); experiment: Pre-emerge herbicidal activity, greenhouse screen, IPOHE
Excerpt: as §1, §2, §3, §4, §5

[9] = tested on: velvetleaf (Abutilon theophrasti, ABUTH); experiment: Post-emerge herbicidal activity, greenhouse screen, ABUTH
Excerpt: as §1, §2, §3, §4, §5

[10] = tested on: lambsquarters (Chenopodium album, CHEAL); experiment: Post-emerge herbicidal activity, greenhouse screen, CHEAL
Excerpt: as §1, §2, §3, §4, §5

[11] = tested on: soybean (Glycine max L., var. Pella 86, SOY); experiment: Pre-emerge crop damage, greenhouse screen, SOY
Excerpt: as §1, §2, §3, §4, §5

[12] = tested on: sicklepod (Cassia obtusifolia, CASOB); experiment: Pre-emerge herbicidal activity, greenhouse screen, CASOB
Excerpt: as §1, §2, §3, §4, §5

[13] = tested on: ivyleaf morningglory (Ipomoea hederacea, IPOHE); experiment: Post-emerge herbicidal activity, greenhouse screen, IPOHE
Excerpt: as §1, §2, §3, §4, §5

[14] = tested on: common ragweed (Ambrosia artemisiifolia L., AMBEL); experiment: Pre-emerge herbicidal activity, greenhouse screen, AMBEL
Excerpt: as §1, §2, §3, §4, §5

[15] = tested on: barnyardgrass (Echinochloa crus-galli, ECHCG); experiment: Pre-emerge herbicidal activity, greenhouse screen, ECHCG
Excerpt: as §1, §2, §3, §4, §5

[16] = tested on: large crabgrass (Digitaria sanguinalis, DIGSA); experiment: Pre-emerge herbicidal activity, greenhouse screen, DIGSA
Excerpt: as §1, §2, §3, §4, §5

[17] = tested on: field corn (Zea mays L., var. Dekalb 527, CORN); experiment: Pre-emerge crop damage, greenhouse screen, CORN
Excerpt: as §1, §2, §3, §4, §5

[18] = tested on: large crabgrass (Digitaria sanguinalis, DIGSA); experiment: Post-emerge herbicidal activity, greenhouse screen, DIGSA
Excerpt: as §1, §2, §3, §4, §5

[19] = tested on: common ragweed (Ambrosia artemisiifolia L., AMBEL); experiment: Post-emerge herbicidal activity, greenhouse screen, AMBEL
Excerpt: as §1, §2, §3, §4, §5

[20] = tested on: sicklepod (Cassia obtusifolia, CASOB); experiment: Post-emerge herbicidal activity, greenhouse screen, CASOB
Excerpt: as §1, §2, §3, §4, §5

[21] = tested on: velvetleaf (Abutilon theophrasti, ABUTH); experiment: Pre-emerge herbicidal activity, greenhouse screen, ABUTH
Excerpt: as §1, §2, §3, §4, §5

[22] = tested on: soybean (Glycine max L., var. Pella 86, SOY); experiment: Post-emerge crop damage, greenhouse screen, SOY
Excerpt: as §1, §2, §3, §4, §5

[23] = tested on: upland rice (Oryza sp., var. Tebonnet, RICE); experiment: Post-emerge crop damage, greenhouse screen, RICE
Excerpt: as §1, §2, §3, §4, §5

[24] = tested on: green foxtail (Setaria viridis, SETVI); experiment: Pre-emerge herbicidal activity, greenhouse screen, SETVI
Excerpt: as §1, §2, §3, §4, §5

[25] = tested on: redroot pigweed (Amaranthus retroflexus, AMARE); experiment: Pre-emerge herbicidal activity, greenhouse screen, AMARE
Excerpt: as §1, §2, §3, §4, §5

[26] = tested on: johnsongrass (Sorghum halepense, SORHA); experiment: Pre-emerge herbicidal activity, greenhouse screen, SORHA
Excerpt: as §1, §2, §3, §4, §5

Cc1nc2c(Cl)cc(F)c(-n3c(=O)cc(C(F)(F)F)n(C)c3=S)c2o1 [Compound 1-2]
Post-emerge Herbicidal Activity CORN (crop damage) ([1]; 63 g ai/ha): 25
Post-emerge Herbicidal Activity CORN (crop damage) ([1]; 250 g ai/ha): 35
Pre-emerge Herbicidal Activity CHEAL ([2]; 63 g ai/ha): 100
Pre-emerge Herbicidal Activity CHEAL ([2]; 250 g ai/ha): 100
Pre-emerge Herbicidal Activity RICE (crop damage) ([3]; 63 g ai/ha): 99
Pre-emerge Herbicidal Activity RICE (crop damage) ([3]; 250 g ai/ha): 100
Post-emerge Herbicidal Activity AMARE ([4]; 63 g ai/ha): 100
Post-emerge Herbicidal Activity AMARE ([4]; 250 g ai/ha): 100
Post-emerge Herbicidal Activity SORHA ([5]; 63 g ai/ha): 100
Post-emerge Herbicidal Activity SORHA ([5]; 250 g ai/ha): 100
Post-emerge Herbicidal Activity ECHCG ([6]; 63 g ai/ha): 100
Post-emerge Herbicidal Activity ECHCG ([6]; 250 g ai/ha): 100
Post-emerge Herbicidal Activity SETVI ([7]; 63 g ai/ha): 100
Post-emerge Herbicidal Activity SETVI ([7]; 250 g ai/ha): 100
Pre-emerge Herbicidal Activity IPOHE ([8]; 63 g ai/ha): 100
Pre-emerge Herbicidal Activity IPOHE ([8]; 250 g ai/ha): 100
Post-emerge Herbicidal Activity ABUTH ([9]; 63 g ai/ha): 100
Post-emerge Herbicidal Activity ABUTH ([9]; 250 g ai/ha): 100
Post-emerge Herbicidal Activity CHEAL ([10]; 63 g ai/ha): 100
Post-emerge Herbicidal Activity CHEAL ([10]; 250 g ai/ha): 100
Pre-emerge Herbicidal Activity SOY (crop damage) ([11]; 63 g ai/ha): 100
Pre-emerge Herbicidal Activity SOY (crop damage) ([11]; 250 g ai/ha): 100
Pre-emerge Herbicidal Activity CASOB ([12]; 63 g ai/ha): 100
Pre-emerge Herbicidal Activity CASOB ([12]; 250 g ai/ha): 100
Post-emerge Herbicidal Activity IPOHE ([13]; 63 g ai/ha): 100
Post-emerge Herbicidal Activity IPOHE ([13]; 250 g ai/ha): 100
Pre-emerge Herbicidal Activity AMBEL ([14]; 63 g ai/ha): 100
Pre-emerge Herbicidal Activity AMBEL ([14]; 250 g ai/ha): 100
Pre-emerge Herbicidal Activity ECHCG ([15]; 63 g ai/ha): 100
Pre-emerge Herbicidal Activity ECHCG ([15]; 250 g ai/ha): 100
Pre-emerge Herbicidal Activity DIGSA ([16]; 63 g ai/ha): 100
Pre-emerge Herbicidal Activity DIGSA ([16]; 250 g ai/ha): 100
Pre-emerge Herbicidal Activity CORN (crop damage) ([17]; 63 g ai/ha): 100
Pre-emerge Herbicidal Activity CORN (crop damage) ([17]; 250 g ai/ha): 100
Post-emerge Herbicidal Activity DIGSA ([18]; 63 g ai/ha): 99
Post-emerge Herbicidal Activity DIGSA ([18]; 250 g ai/ha): 100
Post-emerge Herbicidal Activity AMBEL ([19]; 63 g ai/ha): 100
Post-emerge Herbicidal Activity AMBEL ([19]; 250 g ai/ha): 100
Post-emerge Herbicidal Activity CASOB ([20]; 63 g ai/ha): 100
Post-emerge Herbicidal Activity CASOB ([20]; 250 g ai/ha): 100
Pre-emerge Herbicidal Activity ABUTH ([21]; 63 g ai/ha): 100
Pre-emerge Herbicidal Activity ABUTH ([21]; 250 g ai/ha): 100
Post-emerge Herbicidal Activity SOY (crop damage) ([22]; 63 g ai/ha): 100
Post-emerge Herbicidal Activity SOY (crop damage) ([22]; 250 g ai/ha): 100
Post-emerge Herbicidal Activity RICE (crop damage) ([23]; 63 g ai/ha): 75
Post-emerge Herbicidal Activity RICE (crop damage) ([23]; 250 g ai/ha): 80
Pre-emerge Herbicidal Activity SETVI ([24]; 63 g ai/ha): 100
Pre-emerge Herbicidal Activity SETVI ([24]; 250 g ai/ha): 100
Pre-emerge Herbicidal Activity AMARE ([25]; 63 g ai/ha): 100
Pre-emerge Herbicidal Activity AMARE ([25]; 250 g ai/ha): 100
Pre-emerge Herbicidal Activity SORHA ([26]; 63 g ai/ha): 100
Pre-emerge Herbicidal Activity SORHA ([26]; 250 g ai/ha): 100
